Measurements taken from PubChem BioAssay AID330 (DTP/NCI, 2004).
Values joined by “and” are separate entries in the source; they are usually repeats but may differ in a detail not shown here. Equal values may be shown once. Inconclusive results and toxic doses are left out. The calls were made as follows: active = survival T/C of 150% or more; inactive = T/C below 125% in these data.

Test system: P388 leukemia ip, CD2F1 mice, survival T/C
Assay: NCI In Vivo Anticancer Drug Screen. Data for tumor model P388 Leukemia (intraperitoneal) in CD2F1 (CDF1) mice
Details: endpoint: median survival time, higher = longer survival
Method in brief: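 Mice carrying the transplanted tumor received test compound or vehicle. Survival was recorded in each group, and the value is the treated-group measurement divided by that of the vehicle-treated control group.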

[1] = dose: 100.0 mg/kg/injection, schedule: Q01DX001 (ip), vehicle: Klucel (hydroxypropylcellulose) (HPC)
[2] = dose: 100.0 mg/kg/injection, schedule: Q04DX002 (ip), vehicle: Klucel (hydroxypropylcellulose) (HPC)
[3] = dose: 200.0 mg/kg/injection, schedule: Q01DX001 (ip), vehicle: Klucel (hydroxypropylcellulose) (HPC)
[4] = dose: 50.0 mg/kg/injection, schedule: Q01DX005 (ip), vehicle: Klucel (hydroxypropylcellulose) (HPC)
[5] = dose: 100.0 mg/kg/injection, schedule: Q01DX005 (ip), vehicle: Klucel (hydroxypropylcellulose) (HPC)
[6] = dose: 200.0 mg/kg/injection, schedule: Q01DX005 (ip), vehicle: Klucel (hydroxypropylcellulose) (HPC)
[7] = dose: 60.0 mg/kg/injection, schedule: Q01DX005 (ip), vehicle: saline with Tween-80
[8] = dose: 120.0 mg/kg/injection, schedule: Q01DX005 (ip), vehicle: saline with Tween-80
[9] = dose: 240.0 mg/kg/injection, schedule: Q01DX005 (ip), vehicle: saline with Tween-80
[10] = dose: 25.0 mg/kg/injection, schedule: Q01DX009 (ip), vehicle: saline with Tween-80
[11] = dose: 50.0 mg/kg/injection, schedule: Q01DX009 (ip), vehicle: saline with Tween-80
[12] = dose: 100.0 mg/kg/injection, schedule: Q01DX009 (ip), vehicle: saline with Tween-80
[13] = dose: 100.0 mg/kg/injection, schedule: Q04DX002 (ip), vehicle: saline with Tween-80
[14] = dose: 200.0 mg/kg/injection, schedule: Q04DX002 (ip), vehicle: saline with Tween-80
[15] = dose: 400.0 mg/kg/injection, schedule: Q04DX002 (ip), vehicle: saline with Tween-80
[16] = dose: 200.0 mg/kg/injection, schedule: Q01DX009 (ip), vehicle: saline with Tween-80
[17] = dose: 12.5 mg/kg/injection, schedule: Q01DX009 (ip), vehicle: saline with Tween-80

Measured: T/C

CCCCNC1c2ccccc2CCC1O (stereo unspecified)
inactive: [1] 97 % of control | [2] 118 % of control | [3] 99 % of control

c1ccc(-c2[nH]nc3nccnc23)cc1
inactive: [4] 99 % of control | [5] 98 % of control | [6] 98 % of control

CCCCCCCCCCCCCCCc1nc(SCC(=O)OC)n[nH]1
inactive: [7] 99 % of control | [8] 99 % of control | [9] 98 % of control

C=C1CC2CCC1C2 (stereo unspecified)
inactive: [10] 100 % of control | dose: 25.0 mg/kg/injection, schedule: Q04DX003 (ip), vehicle: saline with Tween-80 104 % of control | [11] 100 % of control | dose: 50.0 mg/kg/injection, schedule: Q04DX003 (ip), vehicle: saline with Tween-80 104 % of control | [12] 100 % of control | dose: 100.0 mg/kg/injection, schedule: Q04DX003 (ip), vehicle: saline with Tween-80 100 % of control

CN(C)c1ccc(C(c2cc3c(cc2O)OCO3)N2CCCCC2)cc1 (stereo unspecified)
inactive: [7] 113 % of control | [8] 121 % of control

C=C(C)C(=O)Nc1ccc(-n2[nH]c(C)c(N=Nc3ccc(N(C)C)cc3)c2=O)cc1
inactive: dose: 50.0 mg/kg/injection, schedule: Q01DX005 (ip), vehicle: saline with Tween-80 98 % of control | dose: 100.0 mg/kg/injection, schedule: Q01DX005 (ip), vehicle: saline with Tween-80 96 % of control | dose: 200.0 mg/kg/injection, schedule: Q01DX005 (ip), vehicle: saline with Tween-80 100 % of control

COc1cc(OC2OC(CO)C(O)C(O)C2O)ccc1/C=C\C(=O)c1ccc(O)cc1 (stereo unspecified)
inactive: [13] 96 % of control | [14] 90 % of control | [15] 91 % of control

C[n+]1c(C[n+]2ccccc2)ccc2ccccc21
inactive: dose: 50.0 mg/kg/injection, schedule: Q01DX005 (ip), vehicle: saline 105 % of control | dose: 100.0 mg/kg/injection, schedule: Q01DX005 (ip), vehicle: saline 106 % of control

C=CC(C(=O)O)S(=O)(=O)O (stereo unspecified)
inactive: dose: 20.0 mg/kg/injection, schedule: Q01DX009 (ip), vehicle: saline with Tween-80 112 % of control | dose: 40.0 mg/kg/injection, schedule: Q01DX009 (ip), vehicle: saline with Tween-80 103 % of control

C=C1C[C@]2(C)c3ccccc3NC(=O)[C@H]12
inactive: [4] 105 % of control | [5] 107 % of control | [6] 98 % of control

O=C1c2ccccc2C(=O)C1c1cc(Cl)c(O)c(Cl)c1
inactive: dose: 50.0 mg/kg/injection, schedule: Q04DX002 (ip), vehicle: saline 100 % of control | dose: 50.0 mg/kg/injection, schedule: Q04DX002 (ip), vehicle: suspension in saline 99 % of control | dose: 100.0 mg/kg/injection, schedule: Q04DX002 (ip), vehicle: saline 117 % of control and 94 % of control | dose: 100.0 mg/kg/injection, schedule: Q04DX002 (ip), vehicle: suspension in saline 98 % of control | dose: 200.0 mg/kg/injection, schedule: Q04DX002 (ip), vehicle: saline 101 % of control and 117 % of control | dose: 200.0 mg/kg/injection, schedule: Q04DX002 (ip), vehicle: suspension in saline 100 % of control | dose: 400.0 mg/kg/injection, schedule: Q04DX002 (ip), vehicle: saline 96 % of control | dose: 400.0 mg/kg/injection, schedule: Q04DX002 (ip), vehicle: suspension in saline 100 % of control

CCOC1=C(C)Sc2ccccc2N=C1c1ccccc1
inactive: dose: 100.0 mg/kg/injection, schedule: Q04DX002 (ip), vehicle: Klucel + Tween-80 99 % of control | dose: 200.0 mg/kg/injection, schedule: Q04DX002 (ip), vehicle: Klucel + Tween-80 93 % of control | dose: 400.0 mg/kg/injection, schedule: Q04DX002 (ip), vehicle: Klucel + Tween-80 98 % of control

Clc1ccc2c(c1)Oc1ccccc1C=N2
inactive: [11] 107 % of control | [12] 98 % of control | [16] 96 % of control

O=C(Nc1ccc(CCO)cc1)c1cccc(F)c1
inactive: [7] 93 % of control | [8] 86 % of control | [9] 86 % of control

NC(=S)c1ccccc1N=Cc1cccs1
inactive: dose: 100.0 mg/kg/injection, schedule: Q01DX001 (ip), vehicle: saline 100 % of control | dose: 200.0 mg/kg/injection, schedule: Q01DX001 (ip), vehicle: saline 102 % of control | dose: 400.0 mg/kg/injection, schedule: Q01DX001 (ip), vehicle: saline 98 % of control

COc1cccc2c1C(=O)c1c(O)c3c(c(O)c1C2=O)C[C@@](O)(C(C)=O)C[C@@H]3OC1CC(N)C(OC2CC(N)C(OC)C(C)O2)C(C)O1 (stereo partly specified)
inactive: dose: 3.13 mg/kg/injection, schedule: Q04DX003 (ip), vehicle: water 110 % of control and 115 % of control | dose: 6.25 mg/kg/injection, schedule: Q04DX003 (ip), vehicle: water 119 % of control and 123 % of control | dose: 50.0 mg/kg/injection, schedule: Q04DX003 (ip), vehicle: water 112 % of control

O=c1c(OCc2ccccc2)cccn1Cc1ccccc1
inactive: dose: 25.0 mg/kg/injection, schedule: Q01DX009 (ip), vehicle: distilled water + Tween-80 92 % of control | dose: 50.0 mg/kg/injection, schedule: Q01DX009 (ip), vehicle: distilled water + Tween-80 95 % of control | dose: 100.0 mg/kg/injection, schedule: Q01DX009 (ip), vehicle: distilled water + Tween-80 100 % of control | dose: 200.0 mg/kg/injection, schedule: Q01DX009 (ip), vehicle: distilled water + Tween-80 95 % of control | dose: 400.0 mg/kg/injection, schedule: Q01DX009 (ip), vehicle: distilled water + Tween-80 101 % of control

C(#CP(C#Cc1ccccc1)C#Cc1ccccc1)c1ccccc1
inactive: [11] 103 % of control | [12] 92 % of control | [16] 94 % of control | dose: 400.0 mg/kg/injection, schedule: Q01DX009 (ip), vehicle: saline with Tween-80 86 % of control

Cc1ccc(S)c(C(O)(C(F)(F)F)C(F)(F)F)c1
inactive: dose: 50.0 mg/kg/injection, schedule: Q01DX009 (ip), vehicle: other 100 % of control | dose: 100.0 mg/kg/injection, schedule: Q01DX009 (ip), vehicle: other 100 % of control | dose: 200.0 mg/kg/injection, schedule: Q01DX009 (ip), vehicle: other 100 % of control

O=C(O)CS(=O)(=O)CC(=O)O
inactive: dose: 50.0 mg/kg/injection, schedule: Q01DX009 (ip), vehicle: saline 95 % of control

COC(=O)c1ccccc1NC(CCN1CCN(CCC(=NC(C)(C)C)Nc2ccccc2C(=O)OC)CC1)=NC(C)(C)C
inactive: dose: 50.0 mg/kg/injection, schedule: Q01DX009 (ip), vehicle: Klucel (hydroxypropylcellulose) (HPC) 93 % of control | dose: 100.0 mg/kg/injection, schedule: Q01DX009 (ip), vehicle: Klucel (hydroxypropylcellulose) (HPC) 96 % of control | dose: 200.0 mg/kg/injection, schedule: Q01DX009 (ip), vehicle: Klucel (hydroxypropylcellulose) (HPC) 92 % of control

CC(O)CC1(c2ccccc2)C(=O)NC(=O)NC1=O (stereo unspecified)
inactive: [11] 98 % of control | [12] 98 % of control | [16] 95 % of control

O=C(Nc1ccccc1)C1(c2ccccc2)CCCCC1
inactive: dose: 25.0 mg/kg/injection, schedule: Q01DX005 (ip), vehicle: Klucel (hydroxypropylcellulose) (HPC) 101 % of control | [4] 99 % of control | [5] 100 % of control | [6] 93 % of control

O=C1NCCN=C1Cc1ccccc1
inactive: [13] 93 % of control | [14] 100 % of control | [15] 95 % of control

O=C(O)CCc1nc(-c2ccccc2)nc2c1CCc1ccccc1-2
inactive: [2] 92 % of control | dose: 200.0 mg/kg/injection, schedule: Q04DX002 (ip), vehicle: Klucel (hydroxypropylcellulose) (HPC) 97 % of control | dose: 400.0 mg/kg/injection, schedule: Q04DX002 (ip), vehicle: Klucel (hydroxypropylcellulose) (HPC) 98 % of control

S=C(Nc1ccc(Cl)cc1)SSC(Cl)(Cl)Cl
inactive: [17] 91 % of control | [10] 100 % of control | dose: 50.0 mg/kg/injection, schedule: Q01DX009 (ip), vehicle: saline + alcohol 112 % of control | [11] 115 % of control

COc1cc(Cc2nnc(N)[nH]c2=O)cc(OC)c1OC
inactive: dose: 6.25 mg/kg/injection, schedule: Q01DX009 (ip), vehicle: saline with Tween-80 97 % of control | [17] 91 % of control | [1] 116 % of control | [3] 89 % of control | dose: 400.0 mg/kg/injection, schedule: Q01DX001 (ip), vehicle: Klucel (hydroxypropylcellulose) (HPC) 100 % of control
